Measured values taken from patent US6180640A, “Di- and tetra-hydroquinoline-indole antimicrobial agents, uses and compositions related thereto” (Sepracor, Inc., priority 1999, dated 2001).
Like-named read-outs stand apart in the source and are kept apart here.

Legend:
in vivo = assay: in vivo; set-up: species or system mice; details: mouse, ip
Experimental: Solutions of compounds in 10% w/v hydroxypropyl-β-cyclodextrin in 0.9% w/v saline were prepared. A dose of 40 mg/kg or 120 mg/kg of each compound was administered to mice (5 mice/compound/dose) via intraperitoneal injections.

[1] = Pharmacokinetics in rats after i.v. dosing: plasma and tissue content; format: in vivo; details: 3.6 mg/kg i.v.; for concentration at 4 h: 3.6 mg/kg, liposomal
Experimental: The pharmacokinetics of the compound were evaluated in two rats after dosing at 3.6 mg/kg i.v using a liposomal formulation (1.8 mg/mL). […] Maximum concentrations of approximately 450 ng/ml were attained in plasma. […] Data on the accumulation of the compound in various tissues of the rats is contained in the table below.

[2] = test system: methicillin-resistant Staphylococcus aureus; assay: Topical treatment of infected partial thickness wounds in pigs; format: in vivo, methicillin-resistant Staphylococcus aureus; pigs; details: pig wounds, 200 mg of 2% w/w in PEG
Experimental: This Example establishes the efficacy of an antibacterial compound of the present invention in the topical treatment of methicillin-resistant Staphylococcus aureus infections. Partial thickness wounds were made on properly anesthetized young, specific pathogen free female pigs (SPF; Ken-O-Kaw Frams, Windsor, Ill.) weighing 25-30 kg. The wounds were inoculated with methicillin-resistant Staphylococcus aureus (~10^6 CFU/mL). Within 10 minutes of inoculation 200 mg of test compound [2% w/w in polyethylene glycol (PEG)] was applied to each wound. Wounds were cultured on days 1, 2, and 3. Each site was cultured only once. The culture sample was treated with a neutralizer for the antimicrobial active ingredient. The samples were processed as is known in the art to determine the number of colony forming units per mL.

SMILES: Clc1ccc2c(c1)[C@H]1OCC[C@H]1[C@@H](c1c[nH]c3ccc(Br)cc13)N2 (relative stereo)
- survival at 168 h (in vivo; 40 mg/kg): 100%
- survival at 168 h (in vivo; 120 mg/kg): 100%

SMILES: Clc1ccc2c(c1)[C@H]1OCC[C@H]1[C@H](c1c[nH]c3ccc(Br)cc13)N2 (relative stereo)
- survival at 168 h (in vivo; 40 mg/kg): 100%
- survival at 168 h (in vivo; 120 mg/kg): 100%

SMILES: Brc1ccc2[nH]cc([C@H]3Nc4ccc(C#CCN5CCCCC5)cc4[C@H]4OCC[C@@H]34)c2c1 (relative stereo) [drawing 54]
- concentration at 4 h ([1]; rat, brain, iv, rat 1, 4 h post dose, read-out: Compound Content in Brain): 400 ng/g
- concentration at 4 h ([1]; rat, brain, iv, rat 2, 4 h post dose, read-out: Compound Content in Brain): 400 ng/g
- concentration at 4 h ([1]; rat, kidney, iv, rat 1, 4 h post dose, read-out: Compound Content in Kidney): 1300 ng/g
- concentration at 4 h ([1]; rat, kidney, iv, rat 2, 4 h post dose, read-out: Compound Content in Kidney): 2200 ng/g
- concentration at 4 h ([1]; rat, liver, iv, rat 1, 4 h post dose, read-out: Compound Content in Liver): 3200 ng/g
- concentration at 4 h ([1]; rat, liver, iv, rat 2, 4 h post dose, read-out: Compound Content in Liver): 3000 ng/g
- concentration at 4 h ([1]; rat, lung, iv, rat 1, 4 h post dose, read-out: Compound Content in Lung): 12100 ng/g
- concentration at 4 h ([1]; rat, lung, iv, rat 2, 4 h post dose, read-out: Compound Content in Lung): 10900 ng/g
- concentration at 4 h ([1]; rat, parietal peritoneum, iv, rat 1, 4 h post dose, read-out: Compound Content in Parietal Peritoneum): 1300 ng/g
- concentration at 4 h ([1]; rat, parietal peritoneum, iv, rat 2, 4 h post dose, read-out: Compound Content in Parietal Peritoneum): 1600 ng/g
- Cmax ([1]; rat, plasma, iv, rats, liposomal formulation (1.8 mg/mL), read-out: Maximum concentrations in plasma): ~450 ng/mL
- concentration at 4 h ([1]; rat, thigh muscle, iv, rat 2, 4 h post dose, read-out: Compound Content in Thigh Muscle): 700 ng/g
- tolerability of the dose ([1]; rats, liposomal formulation): well tolerated
- decline of plasma concentrations ([1]; rats, liposomal formulation, two-compartment open model): declined biexponentially

SMILES: Brc1ccc2[nH]cc([C@H]3Nc4ccc(C#CCN5CCCCC5)cc4[C@H]4OCC[C@@H]34)c2c1 (relative stereo) [drawing 55]
- Log CFU/mL (mean ± SE) ([2]; 24 h): 5.92 Log CFU/mL
- Log CFU/mL (mean ± SE) ([2]; 48 h): 5.83 Log CFU/mL
- Log CFU/mL (mean ± SE) ([2]; 72 h): 5.66 Log CFU/mL
